Values of other authors in PubChem BioAssay AID1259409 (Chemical Carcinogenesis Research Information System (CCRIS), 2018).
Values joined by “and” are separate entries in the source; they are usually repeats but may differ in a detail not shown here. Equal values may be shown once.

System: rodent chemically induced tumor inhibition, incidence and multiplicity
Assay: CCRIS tumor inhibitor studies
Settings: Promoter: NONE USED; for outcome: Carcinogen: X-RAY, Route [Inhibitor]: INTRAPERITONEAL, Strain/Sex: C57BL/MALE AND FEMALE, Target Tissue: Type of Lesion: THYMUS GLAND: LYMPHOMA, Dose [Carcinogen]: 175 RADS 1/WK FOR 4 WK (250 KV X-RAYS, PHILLIPS RT 200/250)

c1cc2ccc3cccc4ccc(c1)c2c34
tumour outcome (control, treated, inhibition, significance) (Carcinogen: BENZO[A]PYRENE, 50-32-8, Dose [Inhibitor]: 4 UG IN 0.1 ML ACETONE 3/WK ADMINISTERED SIMULTANEOUSLY WITH CARCINOGEN FOR DURATION OF STUDY (STUDY DURATION: 368 D), Route [Inhibitor]: DERMAL, Species: MOUSE, Strain/Sex: ICR/FEMALE, Target Tissue: Type of Lesion: SKIN: PAPILLOMA, Dose [Carcinogen]: 5 UG IN 0.1 ML ACETONE 3/WK FOR DURATION OF STUDY): 14/50 (28%), 12/50 (24%), 14%, not calculated
tumour outcome (control, treated, inhibition, significance) (Carcinogen: BENZO[A]PYRENE, 50-32-8, Dose [Inhibitor]: 4 UG IN 0.1 ML ACETONE 3/WK ADMINISTERED SIMULTANEOUSLY WITH CARCINOGEN FOR DURATION OF STUDY (STUDY DURATION: 368 D), Route [Inhibitor]: DERMAL, Species: MOUSE, Strain/Sex: ICR/FEMALE, Target Tissue: Type of Lesion: SKIN: SQUAMOUS CARCINOMA, Dose [Carcinogen]: 5 UG IN 0.1 ML ACETONE 3/WK FOR DURATION OF STUDY): 10/50 (20%), 6/50 (12%), 40%, not calculated
tumour outcome (control, treated, inhibition, significance) (Carcinogen: BENZO[A]PYRENE, 50-32-8, Dose [Inhibitor]: 12 UG IN 0.1 ML ACETONE 3/WK ADMINISTERED SIMULTANEOUSLY WITH CARCINOGEN FOR DURATION OF STUDY (STUDY DURATION: 368 D), Route [Inhibitor]: DERMAL, Species: MOUSE, Strain/Sex: ICR/FEMALE, Target Tissue: Type of Lesion: SKIN: PAPILLOMA, Dose [Carcinogen]: 5 UG IN 0.1 ML ACETONE 3/WK FOR DURATION OF STUDY): 14/50 (28%), 26/50 (52%), -86%, not calculated
tumour outcome (control, treated, inhibition, significance) (Carcinogen: BENZO[A]PYRENE, 50-32-8, Dose [Inhibitor]: 12 UG IN 0.1 ML ACETONE 3/WK ADMINISTERED SIMULTANEOUSLY WITH CARCINOGEN FOR DURATION OF STUDY (STUDY DURATION: 368 D), Route [Inhibitor]: DERMAL, Species: MOUSE, Strain/Sex: ICR/FEMALE, Target Tissue: Type of Lesion: SKIN: SQUAMOUS CARCINOMA, Dose [Carcinogen]: 5 UG IN 0.1 ML ACETONE 3/WK FOR DURATION OF STUDY): 10/50 (20%), 20/50 (40%), -100%, not calculated
tumour outcome (control, treated, inhibition, significance) (Carcinogen: BENZO[A]PYRENE, 50-32-8, Dose [Inhibitor]: 40 UG IN 0.1 ML ACETONE 3/WK ADMINISTERED SIMULTANEOUSLY WITH CARCINOGEN FOR DURATION OF STUDY (STUDY DURATION: 440 D), Route [Inhibitor]: DERMAL, Species: MOUSE, Strain/Sex: ICR/FEMALE, Target Tissue: Type of Lesion: SKIN: PAPILLOMA, Dose [Carcinogen]: 5 UG IN 0.1 ML ACETONE 3/WK FOR DURATION OF STUDY): 16/50 (32%), 35/50 (70%), -119%, not calculated
tumour outcome (control, treated, inhibition, significance) (Carcinogen: BENZO[A]PYRENE, 50-32-8, Dose [Inhibitor]: 40 UG IN 0.1 ML ACETONE 3/WK ADMINISTERED SIMULTANEOUSLY WITH CARCINOGEN FOR DURATION OF STUDY (STUDY DURATION: 440 D), Route [Inhibitor]: DERMAL, Species: MOUSE, Strain/Sex: ICR/FEMALE, Target Tissue: Type of Lesion: SKIN: SQUAMOUS CARCINOMA, Dose [Carcinogen]: 5 UG IN 0.1 ML ACETONE 3/WK FOR DURATION OF STUDY): 12/50 (24%), 26/50 (52%), -117%, not calculated

OC1C(O)C(O)C(O)C(O)C1O (configuration not stated)
tumour outcome (control, treated, inhibition, significance) (Carcinogen: 7,12-DIMETHYLBENZ[A]ANTHRACENE, 57-97-6, Dose [Inhibitor]: 0, 15 MILLIMOLAR IN DRINKING WATER FOR 47 WK BEGINNING 2 WK PRIOR TO CARCINOGEN DOSE (STUDY DURATION: 47 WK), Route [Inhibitor]: ORAL, Species: RAT, Strain/Sex: SPRAGUE-DAWLEY/FEMALE, Target Tissue: Type of Lesion: MAMMARY GLAND: TUMOR, Dose [Carcinogen]: 5 MG IN 1 ML CORN OIL ONCE): 37/40 (93%), 30/40 (75%), 19%, p<0.05

O=[As]O
tumour outcome (control, treated, inhibition, significance) (Carcinogen: NONE USED, Dose [Inhibitor]: 10 PPM IN DRINKING WATER DAILY FOR DURATION OF STUDY (STUDY DURATION: 16 MO), Route [Inhibitor]: ORAL, Species: MOUSE, Strain/Sex: C3H/FEMALE, Target Tissue: Type of Lesion: MAMMARY GLAND: ADENOCARCINOMA): 82%, 27%, 67%, not calculated
tumour outcome (control, treated, inhibition, significance) (Carcinogen: NONE USED, Dose [Inhibitor]: 80 PPM IN DRINKING WATER DAILY STARTING AT AGE 1 MO AND CONTINUING FOR LIFE (STUDY DURATION: LIFE), Route [Inhibitor]: ORAL, Species: MOUSE, Strain/Sex: C3H/FEMALE, Target Tissue: Type of Lesion: MAMMARY GLAND: TUMOR): 82%, 40%, 51%, p 0.02

O=[Se](=O)(O)O
tumour outcome (control, treated, inhibition, significance) (Carcinogen: 7,12-DIMETHYLBENZ[A]ANTHRACENE, 57-97-6, Dose [Inhibitor]: 0, 0.2 PPM IN DIET BEGINNING 3 D PRIOR TO CARCINOGEN DOSE AND CONTINUING FOR 8 MO (STUDY DURATION: 8 MO), Route [Inhibitor]: ORAL, Species: MOUSE, Strain/Sex: BALB/FEMALE, Target Tissue: Type of Lesion: MAMMARY GLAND: ADENOCARCINOMA, Dose [Carcinogen]: 1 MG/WK FOR 6 WK): 12/31 (39%), 7/24 (29%), 26%, not calculated
tumour outcome (control, treated, inhibition, significance) (Carcinogen: 7,12-DIMETHYLBENZ[A]ANTHRACENE, 57-97-6, Dose [Inhibitor]: 0, 2 PPM IN DIET BEGINNING 3 D PRIOR TO CARCINOGEN DOSE AND CONTINUING FOR 8 MO (STUDY DURATION: 8 MO), Route [Inhibitor]: ORAL, Species: MOUSE, Strain/Sex: BALB/FEMALE, Target Tissue: Type of Lesion: MAMMARY GLAND: ADENOCARCINOMA, Dose [Carcinogen]: 1 MG/WK FOR 6 WK): 12/31 (39%), 2/23 (9%), 77%, p<0.08

O=C(O)/C=C/c1ccccc1
tumour outcome (control, treated, inhibition, significance) (Carcinogen: BENZO[A]PYRENE, 50-32-8, Dose [Inhibitor]: 0.06 MMOL/G OF DIET DAILY STARTING 7 D BEFORE AND CONTINUING THROUGH 3 D AFTER CARCINOGEN TREATMENT FOLLOWED BY OBSERVAT, Route [Inhibitor]: ORAL, Species: MOUSE, Strain/Sex: ICR/FEMALE, Target Tissue: Type of Lesion: FORESTOMACH: NEOPLASM, Dose [Carcinogen]: 1 MG IN 0.2 ML CORN OIL 2/WK FOR 4 WK): 97%, 100%, -3%, not significant and 100%, 94%, 6%, not significant

C=C(NC(=O)Cc1ccccc1OC)C(=O)O
outcome (Dose [Inhibitor]: 0, 100 MG/KG 15 MIN PRIOR TO EACH IRRADIATION (STUDY DURATION: 14 MO), Species: MOUSE): 45%, 45%, 0%, not significant at 5 mo; 93%, >90%, <3%, not calculated
outcome (Dose [Inhibitor]: 0, 200 MG/KG 15 MIN PRIOR TO SECOND AND FOURTH IRRADIATION (STUDY DURATION 14 MO), Species: MOUSE): 45%, 0%, 100%, not calculated at 5 mo; 93%, 40%, 57%, not calculated at 8 mo
outcome (Dose [Inhibitor]: 0, 400 MG/KG ONCE 15 MIN PRIOR TO FIRST IRRADIATION (STUDY DURATION: 14 MO), Species: MOUSE): 45%, 10%, 78%, not calculated at 5 mo; 93%, >90%, <3%, not calculated at 8 mo

CCCCCCCCCc1ccc(O)cc1
tumour outcome (control, treated, inhibition, significance) (Carcinogen: 7,12-DIMETHYLBENZ[A]ANTHRACENE, 57-97-6, Dose [Inhibitor]: 0, 25 PPM IN DIET FOR 50 WK BEGINNING 1 WK POST-CARCINOGEN DOSE (STUDY DURATION: 51 WK), Route [Inhibitor]: ORAL, Species: RAT, Strain/Sex: SPRAGUE-DAWLEY/FEMALE, Target Tissue: Type of Lesion: OVARY: ADENOCARCINOMA, Dose [Carcinogen]: 0.01 ML OF 0.5% DMBA IN OLIVE OIL INTO THE LEFT OVARY, ONCE, UNDER PENTOBARBITAL ANESTHESIA): 7/20 (35%), 1/20 (5%), 86%, p=0.02
tumour outcome (control, treated, inhibition, significance) (Carcinogen: 7,12-DIMETHYLBENZ[A]ANTHRACENE, 57-97-6, Dose [Inhibitor]: 0, 250 PPM IN DIET FOR 50 WK BEGINNING 1 WK POST-CARCINOGEN DOSE (STUDY DURATION: 51 WK), Route [Inhibitor]: ORAL, Species: RAT, Strain/Sex: SPRAGUE-DAWLEY/FEMALE, Target Tissue: Type of Lesion: OVARY: ADENOCARCINOMA, Dose [Carcinogen]: 0.01 ML OF 0.5% DMBA IN OLIVE OIL INTO THE LEFT OVARY, ONCE, UNDER PENTOBARBITAL ANESTHESIA): 7/20 (35%), 1/20 (5%), 86%, p=0.02
